Measured values taken from patent US20220296584A1, “Membrane Active Molecules” (priority 2017, published 2022).
Like-named read-outs stand apart in the source and are kept apart here.

Tests used:
[1] = tested on: Tadpoles; assay: Tadpole movement suppression (anesthetic efficacy); format: in vivo
Protocol: Tadpoles were placed in a petri dish containing aquarium water. Four to eight tadpoles were placed in each petri dish. The aquarium water contained the specified test compound at the listed concentration. When the tadpoles stopped moving, a plastic rod was used to elicit motion once again by contact between the rod and tadpole. […] From this and the number of subjects, the percent of tadpoles in which movement was suppressed were calculated.
After 1 to 30 minutes, they were again contacted with a rod to ensure the anesthetic effect had worn off
In some examples, subanesthetic concentrations of ethanol were added into the aquarium water. Tadpoles in which movement was prevented with exposure to a test compound and ethanol but not with exposure to a test compound alone were classified as partial anesthetics.

[2] = tested on: mice; details: intravenously; for Observed effect on the animals: 62.5 mM solution in intralipid
[3] = Concentration (mM): 125 + 150 EtOH
[4] = Concentration (mM): 250 + 150 EtOH
[5] = Concentration (mM): 50 + 150 EtOH
[6] = Concentration (mM): 20 + 150 EtOH
[7] = Concentration (mM): 25 + 150 EtOH
[8] = Concentration (mM): 100 + 150 EtOH
[9] = Concentration (mM): 12.5 + 150 EtOH

CCC(O)C(=O)O (stereo not shown) [2-Hydroxybutyric acid, 2-hydroxybutyric acid]
Movement suppressed (%) ([1]; Concentration (mM): 125): 0%
Movement suppressed (%) [1, 3]: 86%

O=C(O)CCC(=O)C(=O)O [2-Oxoglutaric acid]
Movement suppressed (%) ([1]; Concentration (mM): 200 + 150 EtOH): 86%
Movement suppressed (%) [1, 4]: 100%

CC(C)(C)CC(=O)O [3,3-Dimethylbutyric acid, 3,3-Dimethylbutanoic acid]
Movement suppressed (%) ([1]; Concentration (mM): 25): 100%

CC(C)(O)CC(=O)O [3-Hydroxy-3-methylbutyric acid, 3-Hydroxy-3-methylbutanoic acid]
Movement suppressed (%) ([1]; Concentration (mM): 1.6): 0%
Movement suppressed (%) ([1]; Concentration (mM): 6.25): 0%
Movement suppressed (%) ([1]; Concentration (mM): 25): 0%
Movement suppressed (%) [1, 5]: 100%
Movement suppressed (%) ([1]; Concentration (mM): 100): 100%

CCC(C)C(=O)C(=O)O (stereo not shown) [3-Methyl-2-oxovaleric acid, 3-Methyl-2-oxopentanoic acid]
Movement suppressed (%) ([1]; Concentration (mM): 250): 33%

Cc1cccc(C(=O)NCC(=O)O)c1 [3-Methylhippuric acid, (3-Methylbenzoyl)glycine]
Movement suppressed (%) ([1]; Concentration (mM): 3.125): 0%
Movement suppressed (%) ([1]; Concentration (mM): 3.125 + 150 EtOH): 100%

CCC(C)CC(=O)O (stereo not shown) [3-Methylvaleric acid, 3-Methylpentanoic acid]
Movement suppressed (%) ([1]; Concentration (mM): 20): 25%
Movement suppressed (%) [1, 6]: 66%

CC(=O)CCCC(=O)O [4-Acetylbutyric acid, 5-Oxohexanoic acid]
Movement suppressed (%) ([1]; Concentration (mM): 25): 0%
Movement suppressed (%) [1, 7]: 80%

Cc1ccc(C(=O)NCC(=O)O)cc1 [4-Methylhippuric acid, (4-Methylbenzoyl)glycine]
Movement suppressed (%) [1, 7]: 33%
Movement suppressed (%) ([1]; Concentration (mM): 50): 0%
Movement suppressed (%) [1, 5]: 100%
Movement suppressed (%) ([1]; Concentration (mM): 150 EtOH (no test compound concentration printed)): 0%

CC(C)CCC(=O)O [4-Methylvaleric acid]
Movement suppressed (%) ([1]; Concentration (mM): 20): 0%
Movement suppressed (%) [1, 6]: 100%

O=C(O)CCCCC(=O)O [Adipic acid, Hexanedioic acid]
Movement suppressed (%) ([1]; Concentration (mM): 50): 0%
Movement suppressed (%) [1, 5]: 83%

C[C@H](N)C(=O)O [Alanine]
Movement suppressed (%) ([1]; Concentration (mM): 62.5 + 150 EtOH): 20%
Movement suppressed (%) [1, 3]: 80%

O=C(NC(O)C(=O)O)c1ccccc1 (stereo not drawn) [Alpha-Hydroxyhippuric acid, 2-Benzamido-2-hydroxyacetic acid]
Movement suppressed (%) ([1]; Concentration (mM): 5): 33%
Movement suppressed (%) ([1]; Concentration (mM): 5 + 20 EtOH): 66%
Movement suppressed (%) ([1]; Concentration (mM): 10): 100%

N=C(N)NCCC[C@H](N)C(=O)O [Arginine]
Movement suppressed (%) ([1]; Concentration (mM): 46.5): 0%
Movement suppressed (%) ([1]; Concentration (mM): 192 + 150 EtOH): 83%

C[N+](C)(C)CCO [Choline]
Movement suppressed (%) ([1]; Concentration (mM): 46 + 150 EtOH): 0%
Movement suppressed (%) [1, 8]: 40%
Movement suppressed (%) ([1]; Concentration (mM): 120 + 150 EtOH): 66%

CC(C)(C(=O)O)C(=O)O [Dimethylmalonic acid]
Movement suppressed (%) ([1]; Concentration (mM): 125): 60%
Movement suppressed (%) ([1]; Concentration (mM): 250): 60%

CCO [Ethanol control, ethanol, reference compound]
Movement suppressed (%) ([1]; Concentration (mM): 100): 0%
Movement suppressed (%) ([1]; Concentration (mM): 150): 0%
Movement suppressed (%) ([1]; Concentration (mM): 200): 0%
Movement suppressed (%) ([1]; Concentration (mM): 250): 33%

N[C@@H](CCC(=O)O)C(=O)O [Glutamate, Glutamic acid]
Movement suppressed (%) [1, 5]: 100%

NC(=O)CC[C@H](N)C(=O)O [Glutamine]
Movement suppressed (%) ([1]; Concentration (mM): 25): 0%
Movement suppressed (%) ([1]; Concentration (mM): 50): 100%
Movement suppressed (%) ([1]; Concentration (mM): 100): 100%

O=C(O)CCCC(=O)O [Glutaric acid]
Movement suppressed (%) ([1]; Concentration (mM): 7.8): 0%
Movement suppressed (%) ([1]; Concentration (mM): 31): 0%
Movement suppressed (%) ([1]; Concentration (mM): 125): 0%
Movement suppressed (%) [1, 3]: 60%

O=C(O)Cc1c[nH]c2ccccc12 [Indole-3-acetic acid, 2-(1H-indol-3-yl)acetic acid]
Movement suppressed (%) ([1]; Concentration (mM): 12.5): 0%
Movement suppressed (%) [1, 9]: 100%

CC[C@H](C)[C@H](N)C(=O)O [Isoleucine]
Movement suppressed (%) ([1]; Concentration (mM): 25): 0%
Movement suppressed (%) [1, 8]: 60%

CC(C)C(C(=O)O)C(=O)O [Isopropyl malonic acid, 2-isopropylmalonic acid]
Movement suppressed (%) ([1]; Concentration (mM): 1.6): 0%
Movement suppressed (%) ([1]; Concentration (mM): 6.25): 0%
Movement suppressed (%) ([1]; Concentration (mM): 25): 50%
Movement suppressed (%) [1, 7]: 40%

O=C(O)c1cc(O)c2ccccc2n1 [Kynurenic acid, 4-hydroxyquinoline-2-carboxylic acid]
Movement suppressed (%) ([1]; Concentration (mM): 12.5): 0%
Movement suppressed (%) [1, 9]: 100%

NC(=O)C[C@H](N)C(=O)O [L-Asparagine, Asparagine]
Movement suppressed (%) ([1]; Concentration (mM): 100): 0%
Movement suppressed (%) [1, 8]: 66%

N[C@@H](CO)C(=O)O [L-Serine, Serine]
Movement suppressed (%) ([1]; Concentration (mM): 114): 0%
Movement suppressed (%) ([1]; Concentration (mM): 229 + 150 EtOH): 60%
Movement suppressed (%) ([1]; Concentration (mM): 300 + 150 EtOH): 100%

CC(C)[C@H](N)C(=O)O [L-valine, Valine]
Movement suppressed (%) ([1]; Concentration (mM): 7.8): 0%
Movement suppressed (%) ([1]; Concentration (mM): 31): 0%
Movement suppressed (%) ([1]; Concentration (mM): 125): 0%
Movement suppressed (%) ([1]; Concentration (mM): 500): 40%
Movement suppressed (%) ([1]; Concentration (mM): 500 + 150 EtOH): 100%

CC(=O)CCC(=O)O [Levulinic acid, 4-oxopentanoic acid]
Movement suppressed (%) [1, 8]: 50%

NCCCC[C@H](N)C(=O)O [Lysine]
Movement suppressed (%) [1, 4]: 50%

O=C(O)C(O)c1ccccc1 (stereo not shown) [Mandelic acid, 2-Hydroxy-2-phenylacetic acid]
Movement suppressed (%) ([1]; Concentration (mM): 250): 0%
Movement suppressed (%) ([1]; Concentration (mM): 300): 100%
Movement suppressed (%) ([1]; Concentration (mM): 500): 100%

CC(CC(=O)O)C(=O)O (stereo not shown) [Methylsuccinic acid]
Movement suppressed (%) [1, 4]: 43%

O=C(O)CC(=O)C(=O)O [Oxaloacetic acid, 2-Oxosuccinic acid]
Movement suppressed (%) [1, 3]: 100%

O=C(O)C(=O)Cc1ccccc1 [Phenylpyruvic acid, 2-Oxo-3-phenylpropanoic acid]
Movement suppressed (%) ([1]; Concentration (mM): 62.5): 100%
Movement suppressed (%) ([1]; Concentration (mM): 125): 100%

O=C(O)[C@@H]1CCCN1 [Proline]
Movement suppressed (%) ([1]; Concentration (mM): 103): 0%
Movement suppressed (%) ([1]; Concentration (mM): 411 + 150 EtOH): 100%

O=C(O)c1ccc2ccccc2n1 [Quinaldic acid, Quinoline-2-carboxylic acid]
Movement suppressed (%) ([1]; Concentration (mM): 25): 16%
Movement suppressed (%) [1, 7]: 60%

C[C@@H](O)CC(=O)O [R-3-hydroxybutyric acid, (R)-3-Hydroxybutanoic acid]
Movement suppressed (%) ([1]; Concentration (mM): 100): 0%
Movement suppressed (%) ([1]; Concentration (mM): 200): 0%
Movement suppressed (%) ([1]; Concentration (mM): 250): 0%
Movement suppressed (%) ([1]; Concentration (mM): 300): 0%
Movement suppressed (%) ([1]; Concentration (mM): 350): 0%
Movement suppressed (%) ([1]; Concentration (mM): 400): 46%
Movement suppressed (%) ([1]; Concentration (mM): 500): 100%

C[C@H](O)CC(=O)O [S-3-hydroxybutyric acid, (S)-3-Hydroxybutanoic acid]
Movement suppressed (%) ([1]; Concentration (mM): 100): 0%
Movement suppressed (%) ([1]; Concentration (mM): 200): 0%
Movement suppressed (%) ([1]; Concentration (mM): 250): 14%
Movement suppressed (%) ([1]; Concentration (mM): 300): 17%
Movement suppressed (%) ([1]; Concentration (mM): 350): 50%
Movement suppressed (%) ([1]; Concentration (mM): 400): 92%
Movement suppressed (%) ([1]; Concentration (mM): 500): 100%

O=C(O)CCCCCCC(=O)O [Suberic acid, Octanedioic acid]
Movement suppressed (%) ([1]; Concentration (mM): 10): 50%

N[C@@H](Cc1c[nH]c2ccccc12)C(=O)O [Tryptophan]
Movement suppressed (%) ([1]; Concentration (mM): 12.5): 0%
Movement suppressed (%) [1, 9]: 80%

CCOC(=O)C(CC)C(=O)OCC [diethyl ethyl malonate, Diethyl ethyl malonate]
Observed effect on the animals [2]: lethargic and those loss coordination
Lethality ([2]; 250 mM solution in intralipid): lethal
Lethality ([2]; 1M solution in intralipid): lethal

CCOC(=O)C(CC)(C(=O)OCC)c1ccccc1 [diethyl ethylphenylmalonate]
Observed effect on the animals [2]: lethargic and those loss coordination
Lethality ([2]; 250 mM solution in intralipid): lethal
Lethality ([2]; 1M solution in intralipid): lethal

Fumaric acid
Movement suppressed (%) ([1]; Concentration (mM): 25): 40%

Guanidine
Movement suppressed (%) ([1]; Concentration (mM): 62.5): 0%

Succinic acid
Movement suppressed (%) ([1]; Concentration (mM): 62.5): 0%

Tartaric acid [L-Tartaric acid]
Movement suppressed (%) ([1]; Concentration (mM): 50): 0%
